Measurements taken from patent US20070129288A1, “Antibacterial amide macrocycles” (BAYER HEALTHCARE AG, priority 2002, published 2007).
Converted amounts (≈) assume the structure as drawn. Structures can show the parent of a compound that is named as a salt. Where two headings read alike, the source gives them in different places.

Legend:
[1] = molecular target: translation of firefly luciferase, S. aureus 133 S30 extract; experiment: In vitro transcription-translation with S. aureus extracts; assay type: biochemical; details: reporter plasmid pla, 30° C., 60 min, luciferase luminescence
Text: (§1) In vitro Transcription-translation with S. aureus Extracts
(§2) Construction of an S. aureus Luciferase Reporter Plasmid
(§3) A reporter plasmid which can be used in an in vitro transcription-translation assay for S. aureus is constructed by using the plasmid pBESTluc (Promega Corporation, USA). The E. coli tac promoter present in this plasmid in front of the firefly luciferase is replaced by the capAl promoter with appropriate Shine-Dalgarno sequence from S. aureus. The primers CAPFor 5′-[…] […]-3′ and CAPRev 5′-[…]-3′ are used for this. The primer CAPFor contains the capAl promoter, the ribosome binding site and the 5′ region of the luciferase gene. After PCR using pBESTluc as template it is possible to isolate a PCR product which contains the firefly luciferase gene with the fused capAl promoter. This is, after restriction with Clal and HindIII, ligated into the vector pBESTluc which has likewise been digested with ClaI and HindIII. The resulting plasmid pla is able to replicate in E. coli and be used as template in the S. aureus in vitro transcription-translation assay.
(§4) Preparation of S30 Extracts from S. aureus
(§5) Six liters of BHI medium are inoculated with a 250 ml overnight culture of an S. aureus strain and allowed to grow at 37° C. until the OD600 nm is 2-4. The cells are harvested by centrifugation and washed in 500 ml of cold buffer A (10 mM Tris acetate, pH 8.0, 14 mM Mg acetate, 1 mM DTT, 1 M KCl). After renewed centrifugation, the cells are washed in 250 ml of cold buffer A with 50 mM KCl, and the resulting pellets are frozen at −20° C. for 60 min. The pellets are thawed on ice in 30 to 60 min and taken up to a total volume of 99 ml in buffer B (10 mM Tris acetate, pH 8.0, 20 mM Mg acetate, 1 mM DTT, 50 mM KCl). 1.5 ml portions of lysostaphin (0.8 mg/ml) in buffer B are introduced into 3 precooled centrifuge cups and each mixed with 33 ml of the cell suspension. The samples are incubated at 37° C., shaking occasionally, for 45 to 60 min, before 150 μl of a 0.5 M DTT solution are added. The lyzed cells are centrifuged at 30 000×g and 4° C. for 30 min. The cell pellet is taken up in buffer B and then centrifuged again under the same conditions, and the collected supernatants are combined. The supernatants are centrifuged again under the same conditions, and 0.25 volume of buffer C (670 mM Tris acetate, pH 8.0, 20 mM Mg acetate, 7 mM Na3 phosphenolpyruvate, 7 mM DTT, 5.5 mM ATP, 70 μM amino acids (complete from Promega), 75 μg of pyruvate kinase (Sigma, Germany)/ml are added to the upper 2/3 of the supernatant. The samples are incubated at 37° C. for 30 min. The supernatants are dialyzed against 2 l of dialysis buffer (10 mM Tris acetate, pH 8.0, 14 mM Mg acetate, 1 mM DTT, 60 mM K acetate) in a dialysis tube with a 3500 Da cut-off with one buffer change at 4° C. overnight. The dialysate is concentrated to a protein concentration of about 10 mg/ml by covering the dialysis tube with cold PEG 8000 powder (Sigma, Germany) at 4° C. The S30 extracts can be stored in aliquots at −70° C.
(§6) Determination of the IC50 in the S. aureus in vitro Transcription-translation Assay
(§7) Inhibition of protein biosynthesis of the compounds can be shown in an in vitro transcription-translation assay. The assay is based on the cell-free transcription and translation of firefly luciferase using the reporter plasmid pla as template and cell-free S30 extracts obtained from S. aureus. The activity of the resulting luciferase can be detected by luminescence measurement. […]

[2] = tested on: S. aureus 133; experiment: Minimum inhibitory concentration (MIC), liquid dilution test; assay type: cell-based
Experimental: (§8) Determination of the Minimum Inhibitory Concentration (MIC):
(§9) The minimum inhibitory concentration (MIC) is the minimum concentration of an antibiotic with which the growth of a test microbe is inhibited over 18-24 h. The inhibitor concentration can in these cases be determined by standard microbiological methods (see, for example, The National Committee for Clinical Laboratory Standards. Methods for dilution antimicrobial susceptibility tests for bacteria that grow aerobically; approved standard-fifth edition. NCCLS document M7-A5 [ISBN 1-56238-394-9]. NCCLS, 940 West Valley Road, Suite 1400, Wayne, Pa. 19087-1898 USA, 2000). The MIC of the compounds of the invention is determined in the liquid dilution test on the 96-well microtiter plate scale. The bacterial microbes are cultivated in a minimal medium (18.5 mM Na2HPO4, 5.7 mM KH2PO4, 9.3 mM NH4Cl, 2.8 mM MgSO4, 17.1 mM NaCl, 0.033 μg/ml thiamine hydrochloride, 1.2 μg/ml nicotinic acid, 0.003 μg/ml biotin, 1% glucose, 25 μg/ml of each proteinogenic amino acid with the exception of phenylalanine; [H.-P. Kroll; unpublished]) with addition of 0.4% BH broth (test medium). In the case of Enterococcus faecalis ICB 27159, heat-inactivated fetal calf serum (FCS; GibcoBRL, Germany) is added to the test medium in a final concentration of 10%. Overnight cultures of the test microbes are diluted to an OD578 of 0.001 (to 0.01 in the case of Enterococci) in fresh test medium, and incubated 1:1 with dilutions of the test substances (1:2 dilution steps) in test medium (150 μl final volume). The cultures are incubated at 37° C. for 18-24 hours; Enterococci in the presence of 5% CO2.
(§10) The lowest substance concentration in each case at which bacterial growth was no longer visible is defined as the MIC. […] The compounds show a graded antibacterial effect against most of the test microbes.

[3] = tested on: translation of firefly luciferase, Escherichia coli MRE 600 S30 extract; experiment: In vitro transcription-translation with E. coli extracts; assay type: biochemical; details: plasmid pBESTLuc, 30° C., 60 min, luciferase luminescence, read-out: IC50 E. coli MRE600 Translation
Experimental: In vitro Transcription-translation with E. coli Extracts
An S30 extract is prepared by harvesting logarithmically growing Escherichia coli MRE 600 (M. Müller; University Freiburg), washing and employing them as described for the in vitro transcription-translation assay (Müller, M. and Blobel, G. Proc Natl Acad Sci USA (1984) 81, pp. 7421-7425).
1 μl of cAMP (11.25 mg/ml) are additionally added per 50 μl of reaction mix to the reaction mix for the in vitro transcription-translation assay. The assay mixture amounts to 105 μl, with 5 μl of the substance to be tested being introduced in 5% strength DMSO. 1 μg/100 μl of mixture of the plasmid pBESTLuc (Promega, Germany) are used as transcription template. After incubation at 30° C. for 60 min, 50 μl of luciferin solution (20 mM tricine, 2.67 mM MgSO4, 0.1 mM EDTA, 33.3 mM DTT pH 7.8, 270 μM CoA, 470 μM luciferin, 530 μM ATP) are added, and the resulting bioluminescence is measured in a luminometer for 1 minute. The IC50 is indicated by the concentration of an inhibitor which leads to 50% inhibition of the translation of firefly luciferase.

[4] = molecular target: translation of firefly luciferase, S. aureus RN4220 S30 extract; experiment: In vitro transcription-translation with S. aureus extracts; assay type: biochemical; details: reporter plasmid pla, 30° C., 60 min, luciferase luminescence
Text: as §1, §2, §3, §4, §5, §6, §7

[5] = tested on: S. aureus RN4220; experiment: Minimum inhibitory concentration (MIC), liquid dilution test; assay type: cell-based; details: Staphylococcus aureus, minimal medium with 0.4% BH broth, 37° C., 18-24 h
Experimental: as §8, §9, §10

[6] = tested on: S. aureus 25701; experiment: as above; assay type: cell-based; details: Staphylococcus aureus, minimal medium with 0.4% BH broth, 37° C., 18-24 h
Experimental: as §8, §9, §10

[7] = tested on: B. catarrhalis M3; experiment: as above; assay type: cell-based; details: Moraxella catarrhalis, minimal medium with 0.4% BH broth, 37° C., 18-24 h
Experimental: as §8, §9, §10

[8] = tested on: Enterococcus faecalis ICB 27159; experiment: as above; assay type: cell-based; details: ICB27159, test medium with 10% FCS, 5% CO2, 37° C., 18-24 h, read-out: MIC E. faecalis ICB27159
Experimental: as §8, §9, §10

[9] = tested on: S. aureus 133; experiment: Systemic infection with S. aureus 133 (mouse sepsis model); assay type: in vivo; details: female CFW1 mice, i.p. infection, i.v. therapy 30 minutes after infection, survival recorded for 6 days
Experimental: Systemic Infection with S. aureus 133
The suitability of the compounds of the invention for treating bacterial infections can be shown in various animal models. For this purpose, the animals are generally infected with a suitable virulent microbe and then treated with the compound to be tested, which is in a formulation which is adopted to the particular therapy model.
For this purpose, S. aureus 133 cells are cultured overnight in BH broth (Oxoid, Germany). The overnight culture is diluted 1:100 in fresh BH broth and expanded for 3 hours. The bacteria which are in the logarithmic phase of growth are centrifuged and washed 2× with buffered physiological saline solution. A cell suspension in saline solution with an extinction of 50 units is then adjusted in a photometer (Dr. Lange LP 2W). After a dilution step (1:15), this suspension is mixed 1:1 with a 10% strength mucine suspension. 0.2 ml of this infection solution is administered i.p. per 20 g of mouse. This corresponds to a cell count of about 1-2×10E6 microbes/mouse. The i.v. therapy takes place 30 minutes after the infection. Female CFW1 mice are used for the infection test. The survival of the animals is recorded for 6 days. The animal model is adjusted so that untreated animals die within 24 h after the infection.

[10] = Staphylococcus aureus, 133, read-out: MIC S. aureus 133

| SMILES | IC50 [1] | MIC ([2]; Staphylococcus aureus, 133, minimal medium with 0.4% BH broth, 37° C., 18-24 h, read-out: MIC S. aureus 133) | IC50 [3] | IC50 [4] | MIC [5] | MIC [2, 10] | MIC [6] | MIC [7] | MIC [8] | therapeutic effect ED100 [9] |
| --- | --- | --- | --- | --- | --- | --- | --- | --- | --- | --- |
| NC[C@H](O)C[C@@H]1NC(=O)[C@@H](N)Cc2cc(ccc2O)-c2ccc(O)c(c2)C[C@@H](C(=O)NCC(N)=O)NC1=O [Example 37] | 500 nM | 0.8 µM (≈ 0.423 µg/mL) | – | – | – | – | – | – | – | – |
| NC[C@H](O)C[C@@H]1NC(=O)[C@@H](N)Cc2cc(ccc2O)-c2ccc(O)c(c2)C[C@@H](C(N)=O)NC1=O [Example 1, (8S,11S,14S)-14-Amino-11-[(2R)-3-amino-2-hydroxypropyl]-5,17-dihydroxy-10,13-dioxo-9,12-diazatricyclo[14.3.1.1^2,6]henicosa-1(20),2(21),3,5,16,18-hexaene-8-carboxamide dihydrochloride] | 900 nM | – | 150 nM | 500 nM | 0.1 µM | 0.2 µM | 6.25 µM | 1.56 µM | 6.25 µM | – |
| NC[C@H](O)C[C@@H]1NC(=O)[C@@H](N)Cc2cc(ccc2O)-c2ccc(O)c(c2)C[C@@H](C(=O)NCc2ccccc2)NC1=O [Example 2, (8S,11S,14S)-14-Amino-11-[(2R)-3-amino-2-hydroxypropyl]-N-benzyl-5,17-dihydroxy-10,13-dioxo-9,12-diazatricyclo[14.3.1.1^2,6]henicosa-1(20),2(21),3,5,16,18-hexaene-8-carboxamide dihydrochloride] | 1300 to 4500 nM | – | 550 nM | 3400 nM | 12.5 µM | 25 µM | 50 µM | 25 µM | 25 µM | 1.25 mg/kg |
